Experiment: xn = mol fraction of the nth substance listed
Details: 101 kPa, Liquid

CCCCCO [pentan-1-ol] + CCOC(=O)CC(=O)OCC
x2 = 0
Details | mass density [kg/m3]
288.15 K | 818.801
298.15 K | 811.465
313.15 K | 800.264
328.15 K | 788.737

CCOC(=O)CC(=O)OCC [diethyl 1,3-propanedioate] + CO
mass density [kg/m3]
Details | 288.15 K | 298.15 K | 313.15 K | 328.15 K
x1 = 0.05 | 841.286 | 831.536 | 816.754 | 801.691
x1 = 0.1 | 876.23 | 866.252 | 851.13 | 835.697
x1 = 0.1501 | 904.185 | 894.037 | 878.631 | 862.956
x1 = 0.2001 | 926.962 | 916.671 | 901.091 | 885.223
x1 = 0.2501 | 945.901 | 935.504 | 919.763 | 903.75
x1 = 0.3001 | 961.96 | 951.502 | 935.636 | 919.517
x1 = 0.35 | 975.573 | 965.04 | 949.084 | 932.879
x1 = 0.4001 | 987.417 | 976.822 | 960.784 | 944.523
x1 = 0.4503 | 997.752 | 987.12 | 971.04 | 954.725
x1 = 0.5004 | 1006.9 | 996.235 | 980.1 | 963.763
x1 = 0.5497 | 1014.88 | 1004.18 | 988.016 | 971.649
x1 = 0.6 | 1022.04 | 1011.32 | 995.132 | 978.761
x1 = 0.6495 | 1028.48 | 1017.74 | 1001.52 | 985.159
x1 = 0.6997 | 1034.33 | 1023.59 | 1007.37 | 991.006
x1 = 0.7978 | 1044.36 | 1033.61 | 1017.38 | 1001.07
x1 = 0.9009 | 1053.15 | 1042.39 | 1026.22 | 1009.98
x1 = 1 | 1060.33 | 1049.6 | 1033.5 | 1017.34

CC(C)CO [2-methyl-1-propanol] + CCOC(=O)CC(=O)OCC
x2 = 0
Details | mass density [kg/m3]
288.15 K | 805.6
298.15 K | 797.916
313.15 K | 786.069
328.15 K | 773.692

CCCCO [butan-1-ol] + CCOC(=O)CC(=O)OCC
x2 = 0
Details | mass density [kg/m3]
288.15 K | 813.77
298.15 K | 806.137
313.15 K | 794.488
328.15 K | 782.477

CCOC(=O)CC(=O)OCC [diethyl 1,3-propanedioate] + CCCCCO
mass density [kg/m3]
Details | 288.15 K | 298.15 K | 313.15 K | 328.15 K
x1 = 0.0999 | 849.562 | 841.661 | 829.624 | 817.296
x1 = 0.1998 | 878.757 | 870.343 | 857.553 | 844.519
x1 = 0.2999 | 906.036 | 897.187 | 883.774 | 870.127
x1 = 0.3498 | 919.092 | 910.054 | 896.347 | 882.426
x1 = 0.3997 | 931.801 | 922.576 | 908.607 | 894.428
x1 = 0.4499 | 944.204 | 934.797 | 920.565 | 906.141
x1 = 0.4999 | 956.145 | 946.568 | 932.101 | 917.475
x1 = 0.5501 | 967.903 | 958.185 | 943.506 | 928.648
x1 = 0.599 | 978.962 | 969.118 | 954.233 | 939.199
x1 = 0.65 | 990.137 | 980.151 | 965.074 | 949.864
x1 = 0.6997 | 1000.81 | 990.684 | 975.442 | 960.07
x1 = 0.7997 | 1021.52 | 1011.18 | 995.601 | 979.945
x1 = 0.9 | 1041.37 | 1030.84 | 1015 | 999.065
x1 = 1 | 1060.33 | 1049.6 | 1033.5 | 1017.34

CC(C)O [propan-2-ol] + CCOC(=O)CC(=O)OCC
x2 = 0
Details | mass density [kg/m3]
288.15 K | 789.342
298.15 K | 780.99
313.15 K | 767.922
328.15 K | 754.001

Reference: the NIST ThermoML archive (doi:10.1021/je100100n)
